Read-outs that look alike come from different tables or passages of the source.
What was measured:
[1] = system: hyperlipidémie provoquée par l'administration de TRITON®; experiment: Triton test: hyperlipidemia induced by i.v. TRITON W.R. in fasted rats; format: in vivo, rats WISTAR mâles; conditions: for Cholestérol estérifié Score (par rapport au clofibrate compté pour 1) / Cholestérol total Score (par rapport au clofibrate compté pour 1) / Lipides totaux Score (par rapport au clofibrate compté pour 1) / Triglycérides Score (par rapport au clofibrate compté pour 1): ratio to clofibrate of the same series; for inhibition in vivo at 250 mg/kg: Rattus norvegicus, po, blood assayed 6 h and/or 24 h later
Excerpt: Dans une première série d'expériences, des produits ont été testés sur une hyperlipidémie provoquée par l'administration de TRITON® selon le protocole suivant.
Les essais ont été réalisés sur des groupes de cinq rats WISTAR mâles dont le poids varie de 150 à 175 g.
Pour effectuer ces essais, on provoque une hyperlipidémie chez les animaux, au moyen du produit commercialisé par la Société ROHM and HAAS sous le nom de TRITON® W. R.
On observe, sur cette hyperlipidémie, les effets obtenus par administration des substances actives selon l'invention.
Les essais sont réalisés comme suit : • les rats sont mis à jeûner pendant 18 heures, puis on administre le TRITON® W.R. par voie intraveineuse en solution aqueuse à 10 % à raison de 200 mg/kg ;
6 heures et/ou 24 heures plus tard, on effectue les dosages sur le sang de façon traditionnelle.
Dans la première colonne, on a indiqué le numéro du composé testé.
Dans la deuxième colonne, on a indiqué le nombre d'animaux qui ont été soumis au test.
Dans les quatre dernières colonnes, on a indiqué les résultats relatifs respectivement : • aux lipides totaux, • aux triglycérides, • au cholestérol total, • au cholestérol estérifié.
Dans chacune de ces colonnes, on indique : • a) le pourcentage de diminution par rapport au témoin TRITON; • b) le score par rapport au clofibrate de référence, c'est-à-dire le rapport de l'intensité de l'activité du produit testé vis-à-vis de celle,de l'activité au clofibrate comptée pour 1.

[2] = system: animaux ayant reçu pendant une durée prolongée un régime athéromateux; experiment: Atheromatous diet test (cholesterol/cholic acid diet + vitamin D2): biochemical, macroscopic and microscopic examinations; format: in vivo, rats WISTAR femelles
Excerpt: Dans une deuxième série expérimentale, on a testé l'activité de certains produits de l'invention sur des animaux ayant reçu pendant une durée prolongée un régime athéromateux.
L'essai s'effectue sur des rats WISTAR femelles, d'un poids d'environ 160-180 g.
Les animaux reçoivent une alimentation provenant de l'usine d'alimentation nationale de Villemois- son-Sur-Orge, France, et désignée sous la référence UAR A03, enrichie en cholestérol (0,5 %) et en acide cholique (0,5 %).
Après 15 jours de régime athéromateux et tout en maintenant les animaux sous régime athéromateux, on leur administre par voie orale pendant 4 jours 250 000 ui/kg de vitamine D2 commercialisée sous le nom de Stérogyl 25H, en solution dans de l'huile d'olive.
On administre ensuite les produits à étudier pendant 4 semaines, dès la fin de l'administration de l'agent lésionnel.
La quantité de produit administrée aux animaux est de 100 mg/kg.
En fin d'étude, on effectue sur tous les animaux des examens biochimiques (cholestérol total, cholesterol high density lipoprotein (HDL) et cholesterol low density lipoprotein (LDL), et triglycérides).
En fin d'étude, tous les animaux encore vivants sont sacrifiés, et l'on prélève divers organes dont particulièrement l'aorte, pour l'étude histologique de cette dernière. Deux critères sont étudiés : le nombre de zones athéromateuses et l'intensité des lésions.
Le calcul des cotations s'effectue de la façon suivante : • en ce qui concerne l'intensité des lésions, on effectue une cotation allant de 0 pour l'absence de lésion à […] pour les lésions les plus fortes, et ceci pour chaque type d'altération considéré (augmentation des espaces interlamellalres, interruption des lames élastiques, épaississement des lames élastiques, dépôt de calcium, dépôt de mucopolysaccharides); puis on fait l'addition de la totalité des résultats par lot d'animaux; • en ce qui concerne le nombre de zones athéromateuses, par comptage de ces dernières et addition de la totalité des chiffres obtenus par lot d'animaux.
On calcule ensuite le pourcentage de diminution par rapport aux témoins régime et le score, c'est-à-dire le rapport de l'intensité de l'activité du produit testé vis-à-vis de celle de l'activité du clofibrate, compté pour 1.
Le tableau IV donne les résultats détaillés des examens biochimiques : • a) en % de diminution par rapport au témoin régime; • b) en score, par rapport au produit de référence, le clofibrate, ce dernier étant compté pour 1.
Le tableau V donne le résultat des examens macroscopiques : • a) en % de diminution des animaux atteints de lésions; • b) en score par rapport au clofibrate de référence, dont le score est compté pour 1.
Le tableau VI donne les résultats microscopiques avec cotation histologique concernant l'intensité des lésions, et le nombre de zones athéromateuses.

[3] = Acute oral toxicity (lethal dose); format: in vivo; conditions: mouse, in vivo, po, oral, read-out: DL50 (the source's name) (converted)
Excerpt: (§1) La toxioité aiguë est exprimée par la dose létale 50, c'est-à-dire la dose létale entraînant la mort de 50 % des animaux.
(§2) Cette étude a été effectuée sur des souris mâles et femelles auxquelles on a administré les produits à tester par voie orale à des concentrations différentes et on a mesuré la létalité sur dix souris mâles et sur 10 souris femelles.

souris mâles et femelles = experiment: Acute oral toxicity (lethal dose); format: in vivo; conditions: for DL0 / DL100: oral
Excerpt: as §1, §2

[4] = macroscopic examination, 100 mg/kg for 4 weeks
[5] = 250 mg/kg oral, given with TRITON W.R. 200 mg/kg i.v., read-out: Cholestérol estérifié % (pourcentage de diminution par rapport au témoin TRITON)
[6] = 250 mg/kg oral, given with TRITON W.R. 200 mg/kg i.v., read-out: Cholestérol total % (pourcentage de diminution par rapport au témoin TRITON)
[7] = 250 mg/kg oral, given with TRITON W.R. 200 mg/kg i.v., read-out: Triglycérides % (pourcentage de diminution par rapport au témoin TRITON)
[8] = read-out: Lipides totaux % (pourcentage de diminution par rapport au témoin TRITON), 250 mg/kg oral, given with TRITON W.R. 200 mg/kg i.v.

Row | SMILES | Cholestérol estérifié Score (par rapport au clofibrate compté pour 1) ([1]; 250 mg/kg oral) | Cholestérol total Score (par rapport au clofibrate compté pour 1) ([1]; 250 mg/kg oral) | Lipides totaux Score (par rapport au clofibrate compté pour 1) ([1]; 250 mg/kg oral) | Triglycérides Score (par rapport au clofibrate compté pour 1) ([1]; 250 mg/kg oral) | inhibition in vivo at 250 mg/kg [1, 5] | inhibition in vivo at 250 mg/kg [1, 6] | inhibition in vivo at 250 mg/kg [1, 7] | inhibition in vivo at 250 mg/kg [1, 8] | also measured
1 | CCOC(=O)C(C)(C)Oc1ccc(Cl)cc1 [Clofibrate] | 1,00 | 1,00 | 1,00 | 1,00 | – | – | – | – | CHOLESTEROL HDL Score (clofibrate compté pour 1) ([2]; 100 mg/kg for 4 weeks): 1,00; CHOLESTEROL LDL Score (clofibrate compté pour 1) ([2]; 100 mg/kg for 4 weeks): 1,00; CHOLESTEROL T Score (clofibrate compté pour 1) ([2]; 100 mg/kg for 4 weeks): 1,00; TRIGLYCERIDES Score (clofibrate compté pour 1) ([2]; 100 mg/kg for 4 weeks): 1,00; ANIMAUX ATTEINTS % [2, 4]: 81,82%; ANIMAUX ATTEINTS SCORE CLOFIBRATE [2, 4]: 1,00; NOMBRE DE ZONES ATHEROMATEUSES POUR 15 ANIMAUX Score Clofibrate ([2]; microscopic examination): 1,00; COTATION HISTOLOGIQUE Cotation ([2]; microscopic examination of the aorta, intensity of lesions, sum per group, 100 mg/kg for 4 weeks): 49,10; NOMBRE DE ZONES ATHEROMATEUSES POUR 15 ANIMAUX Cotation ([2]; microscopic examination of the aorta, 100 mg/kg for 4 weeks): 72,30; COTATION HISTOLOGIQUE Score Clofibrate ([2]; microscopic examination, intensity of lesions): 1,00
2 | CCC(CO)NS(=O)(=O)c1cc(Cl)c([N+](=O)[O-])cc1OC (centres unmarked) [compound 316] | 0,63 | 1,17 | 3,09 | – | 31.2% | 11.1% | 0% | 42.6% | LD50 ([3]; Souris femelles): > 15000 mg/kg; LD50 ([3]; Souris mâles): 18500 mg/kg; DL0 (souris mâles et femelles; Souris femelles): ≥ 15 000 mg/kg; DL100 (souris mâles et femelles; Souris femelles): > 15 000 mg/kg; DL0 (souris mâles et femelles; Souris mâles): 15 000 mg/kg; DL100 (souris mâles et femelles; Souris mâles): > 20 000 mg/kg; toxicité par voie digestive (souris mâles et femelles; conclusion in words from all results): pratiquement dénué de toxicité par voie digestive
3 | COc1ccc(N)cc1S(=O)(=O)NCCO [compound 280] | 0,08 | 0,11 | – | – | 2.9% | 1.9% | 0% | – | –
4 | COc1cc([N+](=O)[O-])ccc1S(=O)(=O)N(C)CCO [compound 325] | 0,04 | – | 0,06 | – | 1.6% | 0% | 0% | 2.7% | –
5 | COc1cc(N)c(Cl)cc1S(=O)(=O)NCCO [compound 282] | 0,46 | 0,75 | 0,26 | 0,42 | 15.5% | 13.3% | 21.6% | 12% | –
